We go through two compounds from ChEMBL document CHEMBL1145261, “Design and synthesis of novel diphenacoum-derived, conformation-restricted vitamin K 2,3-epoxide reductase inhibitors” (Bioorg Med Chem Lett, 2005).

The term IC50 denotes the midpoint of a concentration-inhibition curve. Read a high IC50 as a need for much substance.

The experiment has as its target T1, Vitamin K epoxide reductase complex subunit 1 (Bos taurus, UniProt Q6B4J2).
T1 sequence (Q6B4J2 whole entry): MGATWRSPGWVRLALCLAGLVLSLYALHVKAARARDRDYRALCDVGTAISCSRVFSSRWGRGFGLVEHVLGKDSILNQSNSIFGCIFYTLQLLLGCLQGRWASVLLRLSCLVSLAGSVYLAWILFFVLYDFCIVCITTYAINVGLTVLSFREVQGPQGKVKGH
Description: Inhibitory concentration against beef liver Vitamin K epoxide reductase (vitamin K 2,3-epoxide reductase).

`O=c1oc2ccccc2c2c1C1CC(c3ccc(-c4ccccc4)cc3)(Oc3ccccc31)O2` (configuration not stated) gave an IC50 of 1000 nM.
Next, `O=c1oc2ccccc2c(O)c1C1CC(c2ccc(-c3ccccc3)cc2)Oc2ccccc21` (configuration not stated): 40 nM.
